Read-outs that look alike come from different tables or passages of the source.
What was measured:
[1] = test system: RAW264.7 (normal macrophage); assay: MTT cell viability assay, RAW264.7 macrophages; assay type: cell-based, mouse; conditions: Mus musculus, RAW264.7, 24 h
Procedure: (§1) Normal or cancer cells (2×10^3 to 1×10^4 cells/well) were seeded in 96-well plate for overnight and treated with different compounds for 24 h to 72 h. Cells growth were determined by MTT-based colorimetric assays according to. Viability of the test cells treated with vehicle (0.5% DMSO) only was defined as 100% viable. Survival of cells after treatment with DETDs was calculated using the following formula: viable cell number (%)=OD570 (treated cell culture)/OD570 (vehicle control)×100.
(§2) Marcophages (2×10^5 cells/well in 96-well plate) were treated with compounds for 1 h, then incubated further for 24 h with or without the presence of […] LPS in the cultural medium. Nitrite levels in cell culture medium were determined by the Griess reaction method. In parallel to the Griess assays, macrophage cell viabilities were determined using the MTT based colorimetric assay.

[2] = test system: Melanocyte (Normal cells); assay: MTT cell viability assay, normal melanocytes; assay type: cell-based, human; conditions: Homo sapiens, Melanocyte, 24 h
Procedure: as §1
(§3) Several genes are involved in melanoma development and pathology; specifically, mutation in V-raf murine sarcoma viral oncogene homolog B1 (B-RAF) occurs approximately 50-60% and in neuroblastoma RAS viral oncogene homolog (N-RAS) occurs about 30% of malignant melanomas. A spectrum of wild-type or mutated melanoma cell lines including B16-F10, MeWo, A375, A2058, HTB-68, and melanocyte were used to study anti-melanoma cell proliferation activity of parental phytocompound DET and newly synthesized DETDs.

[3] = test system: MeWo (No NRAS or BRAF mutation); assay: MTT cell viability assay, MeWo melanoma; assay type: cell-based, human; conditions: Homo sapiens, MeWo, 24 h
Procedure: as §1, §3

[4] = test system: B16-F10 (NRAS mutation); assay: MTT cell viability assay, B16-F10 melanoma; assay type: cell-based; conditions: Mus musculus, B16-F10, 24 h, read-out: IC50 on cell viability, B16-F10 (NRAS mutation)
Procedure: as §1, §3

[5] = test system: MDA-MB-231 (ER−, PR−, Her2−) human breast cancer cells; assay: MTT cell viability assay, MDA-MB-231 cells; assay type: cell-based; conditions: Homo sapiens, MDA-MB-231, 24 h, read-out: IC50 on cell viability, MDA-MB-231 (ER−, PR−, Her2−)
Procedure: as §1
(§4) Sixty DETDs were derived from parental compound […] and tested for anti-breast cancer cell activity.

[6] = test system: A375 (BRAF mutation); assay: MTT cell viability assay, A375 melanoma; assay type: cell-based, human; conditions: Homo sapiens, A-375, 24 h, read-out: IC50 on cell viability, A375 (BRAF mutation)
Procedure: as §1, §3
To investigate whether or not DETD-35 show synergism with PLX4032 against A375 melanoma cells, we performed anti-proliferation assay using MTT reagent to obtain IC50 of each compound. […] The synergistic effect was quantified by combination index (CI) analysis as stated above.

[7] = test system: A2058 (BRAF mutation); assay: MTT cell viability assay, A2058 melanoma; assay type: cell-based, human; conditions: Homo sapiens, A2058, 24 h
Procedure: as §1, §3

[8] = test system: LPS-induced nitric oxide (NO) production in RAW 264.7 cells; assay: Nitric oxide production in LPS-stimulated macrophages (Griess); assay type: cell-based, mouse; conditions: Mus musculus; LPS-stimulated RAW264.7, nitrite 24 h after LPS
Procedure: as §2
LPS from the outer membrane of Gram-negative bacteria can induce mRNA or protein levels of inducible nitric oxide synthase (iNOS), which catalyzes oxidative deamination of L-arginine to produce nitric oxide (NO). Once NO is predominantly produced, it interacts with superoxide anion and generates highly reactive oxidants resulting in cellular inflammation, DNA, protein and tissue damages, carcinogenesis, and antiapoptosis. We used in vitro LPS stimulated inflammation in RAW264.7 cell system to evaluate the effect of DET and its derivatives DETDs on NO production by determination of nitrite level (equivalent to NO level) in culture medium 24 h after LPS treatment.

[9] = test system: HTB-68 (NRAS mutation); assay: MTT cell viability assay, HTB-68 melanoma; assay type: cell-based, human; conditions: Homo sapiens, 24 h
Procedure: as §1, §3

[10] = test system: TS/A (ER+, Her2−) murine mammary cancer cells; assay: MTT cell viability assay, TS/A cells; assay type: cell-based; conditions: Mus musculus, 24 h, read-out: IC50 on cell viability, TS/A (ER+, Her2−)
Procedure: as §1, §4

[11] = test system: MCF-7 (ER+, Her2−) human breast cancer cells; assay: MTT cell viability assay, MCF-7 cells; assay type: cell-based; conditions: MCF7, 24 h, read-out: IC50 on cell viability, MCF-7 (ER+, Her2−)
Procedure: as §1, §4

[12] = test system: M10 normal mammary epithelial cells; assay: MTT cell viability assay, M10 normal cells; assay type: cell-based, human; conditions: 24 h; for IC50: Homo sapiens, Epithelial cell
Procedure: as §1, §4

| SMILES | IC50 [1] | IC50 [2] | IC50 [3] | IC50 ([4]; 24 h) | IC50 [5] | IC50 ([6]; 24 h, MTT) | IC50 [7] | IC50 [8] | IC50 [9] | IC50 [10] | IC50 [11] | IC50 [12] | IC50 [4] | IC50 [6] | IC50 on cell viability, M10 (normal) [12] |
| --- | --- | --- | --- | --- | --- | --- | --- | --- | --- | --- | --- | --- | --- | --- | --- |
| C=C1C(=O)OC2CC3=C[C@@H](C/C(C)=C/C(OC(=O)C(C)CCC)[C@H]12)OC3=O (stereo partly shown) [DETD-20] | > 10 µM | > 10 µM | > 10 µM | 9 µM | 5.8 µM | > 10 µM | > 10 µM | 4.2 µM | > 10 µM | 2.2 µM | 3.5 µM | > 7.5 µM |  |  |  |
| C=C1C(=O)OC2CC3=C[C@@H](C/C(C)=C/C(OC(=O)C(CC)CCCC)[C@H]12)OC3=O (stereo partly shown) [DETD-21] | > 10 µM | > 10 µM | > 10 µM | > 10 µM | > 7.5 µM | > 10 µM | > 10 µM | 4.7 µM | > 10 µM | 4 µM | 4.5 µM | > 7.5 µM |  |  |  |
| C=C1C(=O)OC2CC3=C[C@@H](C/C(C)=C/C(OC(=O)C(C)CCCC)[C@H]12)OC3=O (stereo partly shown) [DETD-22] | > 10 µM | > 10 µM | > 10 µM | 6.8 µM | 4.3 µM | > 10 µM | > 10 µM | 3.5 µM | > 10 µM | 1.8 µM | 2.5 µM | 4.7 µM |  |  |  |
| C=C1C(=O)OC2CC3=C[C@@H](C/C(C)=C/C(OC(=O)CC(O)(C(C)C)C(C)C)[C@H]12)OC3=O (stereo partly shown) [DETD-23] | > 10 µM | > 10 µM | > 10 µM |  | 5.9 µM |  | > 10 µM | 3.8 µM | > 10 µM | 2.4 µM | 2.5 µM | > 7.5 µM | 8.6 µM | > 10 µM |  |
| C=C1C(=O)OC2CC3=C[C@@H](C/C(C)=C/C(OC(=O)/C=C/C)[C@H]12)OC3=O (stereo partly shown) [DETD-24] | > 10 µM | > 10 µM | > 10 µM | > 10 µM | > 7.5 µM | > 10 µM | > 10 µM | 4.4 µM | > 10 µM | 2.3 µM | 3.9 µM | > 7.5 µM |  |  |  |
| C=C1C(=O)OC2CC3=C[C@@H](C/C(C)=C/C(OC(=O)/C=C/CC)[C@H]12)OC3=O (stereo partly shown) [DETD-25] | > 10 µM | > 10 µM | > 10 µM | > 10 µM | > 7.5 µM | > 10 µM | > 10 µM | 4.9 µM | > 10 µM | 4 µM | 5.8 µM | > 7.5 µM |  |  |  |
| C=C1C(=O)OC2CC3=C[C@@H](C/C(C)=C/C(OC(=O)/C=C/c4ccc(OC)cc4)[C@H]12)OC3=O (stereo partly shown) [DETD-26] | > 10 µM | > 10 µM | > 10 µM | 5 µM | 4.1 µM | > 10 µM | > 10 µM | 1.7 µM | > 10 µM | 1.5 µM | 3.7 µM | 4.7 µM |  |  | some toxicity |
| C=C1C(=O)OC2CC3=C[C@@H](C/C(C)=C/C(OC(=O)/C=C/c4ccc(C)cc4)[C@H]12)OC3=O (stereo partly shown) [DETD-27] | > 10 µM | > 10 µM | > 10 µM | 4.8 µM | 3.6 µM | > 10 µM | > 10 µM | 1.9 µM | > 10 µM | 2.4 µM | 3.7 µM | > 7.5 µM |  |  |  |
| C=C1C(=O)OC2CC3=C[C@@H](C/C(C)=C/C(OC(=O)/C=C/c4ccco4)[C@H]12)OC3=O (stereo partly shown) [DETD-29] | > 10 µM | > 10 µM | > 10 µM | 6.7 µM | 4.9 µM | > 10 µM | > 10 µM | 1.6 µM | > 10 µM | 2.2 µM | 4.1 µM | > 7.5 µM |  |  |  |
| C=C1C(=O)OC2CC3=C[C@@H](C/C(C)=C/C(OC(=O)c4ccccc4)[C@H]12)OC3=O (stereo partly shown) [DETD-31] | > 10 µM | > 10 µM | > 10 µM | 2.9 µM | 4.5 µM | 4.3 µM | > 10 µM | 3.2 µM | > 10 µM | 2 µM | 5.9 µM | > 7.5 µM |  |  |  |
| C=C1C(=O)OC2CC3=C[C@@H](C/C(C)=C/C(OC(=O)C4CC4)[C@H]12)OC3=O (stereo partly shown) [DETD-36] | > 10 µM | > 10 µM | > 10 µM | 9.4 µM | 8.7 µM | 9.2 µM | > 10 µM | 1.8 µM | > 10 µM | 2.4 µM | 7.1 µM | > 7.5 µM |  |  |  |
| C=C1C(=O)OC2CC3=C[C@@H](C/C(C)=C/C(OC(=O)C4CCCC4)[C@H]12)OC3=O (stereo partly shown) [DETD-37] | > 10 µM | > 10 µM | > 10 µM | 3.8 µM | 6.7 µM | > 10 µM | > 10 µM | 2 µM | > 10 µM | 3 µM | 6.2 µM | > 7.5 µM |  |  |  |
| C=C1C(=O)OC2CC3=C[C@@H](C/C(C)=C/C(OC(=O)c4cc5ccccc5o4)[C@H]12)OC3=O (stereo partly shown) [DETD-40] | > 10 µM | > 10 µM | > 10 µM | 4.3 µM | 4.9 µM | > 10 µM | > 10 µM | 4.5 µM | > 10 µM | 3.1 µM | 6.1 µM | > 7.5 µM |  |  |  |
| C=C1C(=O)OC2CC3=C[C@@H](C/C(C)=C/C(OC(=O)c4cc5ccccc5s4)[C@H]12)OC3=O (stereo partly shown) [DETD-41] | > 10 µM | > 10 µM | > 10 µM | 5.5 µM | 5 µM | > 10 µM | > 10 µM | 3.5 µM | > 10 µM | 2.8 µM | 5.3 µM | > 7.5 µM |  |  |  |
| C=C1C(=O)OC2CC3=C[C@@H](C/C(C)=C/C(OC(=O)/C=C/c4cccs4)[C@H]12)OC3=O (stereo partly shown) [DETD-42] | > 10 µM | > 10 µM | > 10 µM |  | 6 µM |  | > 10 µM | 2.9 µM | > 10 µM | 2.7 µM | 4.5 µM | > 7.5 µM | 5.5 µM | > 10 µM |  |
| C=C1C(=O)OC2CC3=C[C@@H](C/C(C)=C/C(OC(=O)Cc4ccccc4)[C@H]12)OC3=O (stereo partly shown) [DETD-43] | > 10 µM | > 10 µM | > 10 µM |  | 6.9 µM |  | 8.7 µM | 3.5 µM | 8.2 µM | 2.4 µM | > 7.5 µM | > 7.5 µM | 7.4 µM | 3.6 µM |  |
| C=C1C(=O)OC2CC3=C[C@@H](C/C(C)=C/C(OC(=O)Cc4ccc(OC)cc4)[C@H]12)OC3=O (stereo partly shown) [DETD-44] | > 10 µM | > 10 µM | > 10 µM | 7.3 µM | 7 µM | 3.5 µM | 8.5 µM | 3.4 µM | 7.6 µM | 2.2 µM | > 7.5 µM | > 7.5 µM |  |  |  |
